Results from patent US20250325497A1, “OPHTHALMIC COMPOSITION COMPRISING RESVERATROL FOR TREATING DRY EYE SYNDROME” (Laboratoires THEA, priority 2022, published 2025).

System: reconstituted Human Corneal Epithelium (HCE)
Assay: Preliminary cytotoxicity: modified MTT viability test on reconstituted HCE
Assay type: cell-based
Conditions: for MTT: Cellular viability (%): relative to negative control
Experimental: An initial study on human corneal epithelium (HCE) was conducted to check the cytotoxicity of a selection of tear substitutes in order to further assess their protection against superficial corneal epithelium oxidative stress damages induced by UVA+B light (290-400 nm).
The preliminary cytotoxicity was performed after 4 h acute exposure and after 8 h exposure (repeated twice a day with the final readout the day after; 0.015 J/cm^2) to tear substitutes using 2 assays: MTT test and TUNEL assay.
The preliminary cytotoxicity was tested in vitro for the following tear substitutes: • Composition according to Example I • Visu XL (market reference containing 0.1% Coenzyme Q10, 0.1% cross-linked hyaluronic acid (HA), 0.5% Vitamin E TPGS; pH 6.9) on the HCE model compared to Benzalkonium Chloride (BAK) 0.1% solution (positive control) and saline solution (NaCl 0.9%; negative control).
An EPISKIN reconstituted Human Corneal Epithelium (HCE) of 0.5 cm^2 was used for the evaluation. Epithelial human Immortalized cells (HICEC) were deposed on a polycarbonate filter and cultured at the air-liquid interface for 5 days in a chemically defined medium in order to form a structured epithelium. The inserts containing the tissues at day 5 (thickness: 55 μm; 5.5 cell layers) were shipped at room temperature in a multi-well plate filled with an agarose nutrient solution in which they were embedded.
The HCEs were placed in 6 well plates with 1 mL maintenance medium overnight in incubator CO2 at 37° C. and 90% humidity. The tissues were then used the day after, following acute 4 h exposure and 8 h repeated exposure and overnight protocol. […]
Two exposure protocols were carried on: • acute exposure protocol (4 h): 4 h exposure followed by tissues rinsing • repeated exposure and overnight protocol (8 h+overnight): twice daily exposure, with at least 4 hours between the two treatments and readout after overnight incubation. […]
The Accuracy of the spectro-photometrical measurements are in the range between 0 and 2 OD: <+/−(1%+10 mOD). The Raw data of OD are directly recorded in the Microplate autoreader (TECAN INFINITE M-200) further processed by Software Magellan 6.5.
The mean of blank OD has been subtracted to every single OD value. The viability of each biological replicate has been calculated dividing the respective OD mean for the optical density average of the negative control (NC) Biological Replicates. The viability % mean of tissues treated with the same substance has been calculated. […]
Test substance meets the acceptance criteria if the Standard Deviation value (SD) of the cell viability % (expressed as percentage compared to NC) between the 2 tissue replicates is <18%.

For Benzalkonium Chloride [BAK 0.1%], the “MTT: Cellular viability (%)” value (4 H acute exposure) was 9.98%, the “MTT: Cellular viability (%)” value (8 H+ OVERNIGHT repeated exposure) was 0.95% and the “Cytotoxicity by MTT test (in words)” value (4 h acute exposure) was “severe cytotoxicity”. For the same substance, the “Cytotoxicity by MTT test (in words)” value (8 h followed by overnight incubation, cut-off 60% cell viability) was “severe cytotoxicity”.
